Here are results for one molecule from paper PMC5231396 (ACS chemical neuroscience, 2016).

This assay deals with T1, M1 muscarinic acetylcholine receptor (Mus musculus, UniProt P12657).
T1 sequence (P12657 1-460): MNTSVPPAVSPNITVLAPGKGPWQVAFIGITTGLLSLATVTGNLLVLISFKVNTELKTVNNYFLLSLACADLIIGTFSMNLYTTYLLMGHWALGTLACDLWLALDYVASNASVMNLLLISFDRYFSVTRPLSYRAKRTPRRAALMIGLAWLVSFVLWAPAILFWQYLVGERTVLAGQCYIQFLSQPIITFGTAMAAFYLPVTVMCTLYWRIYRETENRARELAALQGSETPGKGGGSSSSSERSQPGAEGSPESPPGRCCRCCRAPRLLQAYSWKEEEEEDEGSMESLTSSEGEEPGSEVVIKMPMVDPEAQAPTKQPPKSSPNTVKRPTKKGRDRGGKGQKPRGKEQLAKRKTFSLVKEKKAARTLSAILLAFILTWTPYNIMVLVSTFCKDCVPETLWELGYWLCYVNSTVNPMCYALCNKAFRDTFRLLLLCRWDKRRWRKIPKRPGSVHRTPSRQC
In words: previously published M1 PAM compared side-by-side with VU6004256. In kind it is cell-based.

Structures are written as SMILES.

Usually EC50 stands for the concentration that produces a half-maximal response. The low end stands for higher potency in that assay, the high end for lower potency in that assay. In the case of `Cn1cc(-c2ccc(CN3Cc4ncccc4C3=O)c(F)c2)cn1` [compound 1, VU0453595], the EC50 was found to be 3.22 µM.
